Results from the NIST ThermoML archive (doi:10.1021/je200531k).
± gives the expanded uncertainty stated by the source.

Settings: Crystal; DTA

Normal melting temperature: 315.30 ± 0.5 °C
SMILES: C=C(C)[C@@H]1CC[C@]2(C(=O)O)CC[C@]3(C)[C@H](CC[C@@H]4[C@@]5(C)CC[C@H](O)C(C)(C)[C@@H]5CC[C@]43C)[C@@H]12 [betulinic acid]
